In this assay the test system is polymorphonuclear cells infiltration in hind paw tissue. The assay can be described thus: Ex vivo histological evaluation of hind paw tissue (HE staining, PMN infiltration). It counts as in vivo, Wistar-SPF rats. Particulars: 6 h after carrageenan, Indomethacin 5 mg/kg. Here is the method: The carrageenan-induced hind paw edema model was used for the determination of anti-inflammatory activity. Animals were i.p. pretreated with complexes 2, 4, and 5 (the dosages of the individual complexes were adjusted to contain the same amount of gold as in 10 mg/kg dose of Auranofin), Indomethacin (5 mg/kg), or 25% DMSO (v/v in water) 30 min prior to the injection of 1% λ-carrageenan solution (50 µL) into the plantar side of right hind paws of the rats. The paw volume was measured immediately after the carrageenan injection (this value was set-up as baseline value for the hind paw volume) and during the next 6 h after the administration of the edematogenic agent using a plethysmometer (model 7159, Ugo Basile, Varese, Italy). The degree of swelling was evaluated as a percentage of the change of the volume of the right hind paw after the carrageenan treatment from the baseline volume. A non-steroidal anti-inflammatory drug Indomethacin was used as a positive control and the obtained data were also compared with the previously reported profile of antiedematous activity for Auranofin [38]. After 6 h, the animals were sacrificed and the edematous feet were dissected, the tissue from the plantar parts was extracted, fixed and stained by a standard hematoxylin/eosin (HE) staining for cytological evaluation of polymorphonuclear cells infiltration.
To assess the tissue consequences connected with the reduction of inflammation caused by the tested compounds after the intraplantar injection of carrageenan, the histopathological observations were made on the tissue sections obtained from the laboratory animals after the plethysmometric experiments were finished. All animals were sacrificed by cervical dislocation, and immediately after that, the tissue samples were taken from the plantar area of hind paws. The histopathological changes in tissues, stained by the standard HE staining (see Figure 10), were evaluated by the presence of the inflammation infiltrate, which contained mainly neutrophils (polymorphonuclear cells - PMN).

Results on one compound are retold here after article PMC4198181, “Gold(I) Complexes of 9-Deazahypoxanthine as Selective Antitumor and Anti-Inflammatory Agents” (PLoS ONE, 2014).

As to `COc1ccc2c(c1)c(CC(=O)O)c(C)n2C(=O)c1ccc(Cl)cc1` [Indomethacin, reference compound], the “PMN (neutrophil) infiltrate in hind paw tissue sections” value was “mainly scarce and diffuse”.
